According to PubChem BioAssay AID330 (DTP/NCI, 2004):
“And” between values parts separate entries of the source, which are not always exact repeats. Equal entries are not always repeated. Toxic doses and inconclusive results are not listed. The calls were made as follows: active = survival T/C of 150% or more; inactive = T/C below 125% in these data.

System: P388 leukemia ip, CD2F1 mice, survival T/C
Assay: NCI In Vivo Anticancer Drug Screen. Data for tumor model P388 Leukemia (intraperitoneal) in CD2F1 (CDF1) mice
Settings: endpoint: median survival time, higher = longer survival
Procedure, shortened: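 Mice carrying the transplanted tumor received test compound or vehicle. Survival was recorded in each group, and the value is the treated-group measurement divided by that of the vehicle-treated control group.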

[1] = dose: 50.0 mg/kg/injection, schedule: Q01DX009 (ip), vehicle: saline with Tween-80
[2] = dose: 50.0 mg/kg/injection, schedule: Q01DX005 (ip), vehicle: Klucel (hydroxypropylcellulose) (HPC)
[3] = dose: 100.0 mg/kg/injection, schedule: Q01DX001 (ip), vehicle: Klucel (hydroxypropylcellulose) (HPC)
[4] = dose: 200.0 mg/kg/injection, schedule: Q01DX001 (ip), vehicle: Klucel (hydroxypropylcellulose) (HPC)
[5] = dose: 400.0 mg/kg/injection, schedule: Q01DX001 (ip), vehicle: Klucel (hydroxypropylcellulose) (HPC)
[6] = dose: 12.5 mg/kg/injection, schedule: Q01DX005 (ip), vehicle: saline with Tween-80
[7] = dose: 25.0 mg/kg/injection, schedule: Q01DX005 (ip), vehicle: saline with Tween-80
[8] = dose: 50.0 mg/kg/injection, schedule: Q01DX005 (ip), vehicle: saline with Tween-80
[9] = dose: 100.0 mg/kg/injection, schedule: Q01DX005 (ip), vehicle: saline with Tween-80
[10] = dose: 200.0 mg/kg/injection, schedule: Q01DX005 (ip), vehicle: saline with Tween-80
[11] = dose: 50.0 mg/kg/injection, schedule: Q01DX005 (ip), vehicle: saline
[12] = dose: 100.0 mg/kg/injection, schedule: Q01DX005 (ip), vehicle: saline
[13] = dose: 200.0 mg/kg/injection, schedule: Q01DX005 (ip), vehicle: saline

Measured: T/C

CCn1c2ccccc2c2cc(N=Nc3cc[n+]([O-])c4c(O)cccc34)ccc21
inactive: dose: 5.0 mg/kg/injection, schedule: Q01DX009 (ip), vehicle: saline with Tween-80 110 % of control | dose: 10.0 mg/kg/injection, schedule: Q01DX009 (ip), vehicle: saline with Tween-80 102 % of control | dose: 20.0 mg/kg/injection, schedule: Q01DX009 (ip), vehicle: saline with Tween-80 106 % of control | dose: 40.0 mg/kg/injection, schedule: Q01DX009 (ip), vehicle: saline with Tween-80 107 % of control | [1] 86 % of control

CC(=O)C(CCCn1c(=O)c2c(ncn2C)n(C)c1=O)C(C)=O
inactive: dose: 25.0 mg/kg/injection, schedule: Q01DX005 (ip), vehicle: Klucel (hydroxypropylcellulose) (HPC) 102 % of control | [2] 105 % of control | dose: 100.0 mg/kg/injection, schedule: Q01DX005 (ip), vehicle: Klucel (hydroxypropylcellulose) (HPC) 98 % of control

COc1ccc2c(c1)CCC1C2=NN=C2CCCC21 (stereo unspecified)
inactive: [3] 97 % of control | [4] 88 % of control | [5] 92 % of control

C=C1C(=O)OC2C1C(OC(=O)/C(C)=C/C)CC(O)(CCl)C1C(OC(C)=O)C=C(C)C21O (stereo unspecified)
inactive: dose: 25.0 mg/kg/injection, schedule: Q01DX009 (ip), vehicle: saline with Tween-80 117 % of control | [1] 109 % of control | dose: 100.0 mg/kg/injection, schedule: Q01DX009 (ip), vehicle: saline with Tween-80 114 % of control | dose: 200.0 mg/kg/injection, schedule: Q01DX009 (ip), vehicle: saline with Tween-80 108 % of control

CCOC(=O)c1coc(N)n1
inactive: dose: 12.5 mg/kg/injection, schedule: Q01DX009 (ip), vehicle: other 98 % of control | dose: 25.0 mg/kg/injection, schedule: Q01DX009 (ip), vehicle: other 100 % of control | dose: 50.0 mg/kg/injection, schedule: Q01DX009 (ip), vehicle: other 106 % of control | dose: 100.0 mg/kg/injection, schedule: Q01DX009 (ip), vehicle: other 107 % of control | dose: 200.0 mg/kg/injection, schedule: Q01DX009 (ip), vehicle: other 103 % of control

Nc1nc2cc3[nH]ncc3cc2c(=O)[nH]1
inactive: [6] 98 % of control | [7] 91 % of control | [8] 94 % of control and 97 % of control | [9] 101 % of control | [10] 102 % of control

COc1c2occc2c(CN)c2ccc(=O)oc12
inactive: dose: 7.5 mg/kg/injection, schedule: Q01DX005 (ip), vehicle: saline 98 % of control | dose: 15.0 mg/kg/injection, schedule: Q01DX005 (ip), vehicle: saline 99 % of control | dose: 30.0 mg/kg/injection, schedule: Q01DX005 (ip), vehicle: saline 97 % of control

O=C1CCOc2cccc(c2)OCCC(=O)OCCCOC(=O)CCOc2cccc(c2)OCCC(=O)OCCCO1
inactive: dose: 12.5 mg/kg/injection, schedule: Q01DX005 (ip), vehicle: saline 103 % of control | dose: 25.0 mg/kg/injection, schedule: Q01DX005 (ip), vehicle: saline 107 % of control | [2] 96 % of control | [11] 98 % of control

Nc1nc2[nH]c(=S)[nH]c2c(=O)[nH]1
inactive: [8] 92 % of control | [9] 92 % of control | [10] 95 % of control

Cc1ccc(SSC(=S)N2CCOCC2)cc1
inactive: [3] 104 % of control | [4] 96 % of control | [5] 101 % of control

CC1=C2C(=CC(C)(C)[C@@H]2O)C(=O)[C@](C)(O)C12CC2
inactive: dose: 0.26 mg/kg/injection, schedule: Q01DX010 (ip), vehicle: saline 110 % of control | dose: 0.4 mg/kg/injection, schedule: Q01DX010 (ip), vehicle: saline 110 % of control | dose: 0.6 mg/kg/injection, schedule: Q01DX010 (ip), vehicle: saline 115 % of control | dose: 45.0 micrograms/kg/injection, schedule: Q01DX010 (ip), vehicle: saline 100 % of control | dose: 90.0 micrograms/kg/injection, schedule: Q01DX010 (ip), vehicle: saline 104 % of control | dose: 180.0 micrograms/kg/injection, schedule: Q01DX010 (ip), vehicle: saline 113 % of control

O=C(CCN1C(=O)c2ccccc2C1=O)Nc1ncc[nH]1
inactive: dose: 8.75 mg/kg/injection, schedule: Q01DX005 (ip), vehicle: Klucel (hydroxypropylcellulose) (HPC) 98 % of control | dose: 17.5 mg/kg/injection, schedule: Q01DX005 (ip), vehicle: Klucel (hydroxypropylcellulose) (HPC) 98 % of control | dose: 35.0 mg/kg/injection, schedule: Q01DX005 (ip), vehicle: Klucel (hydroxypropylcellulose) (HPC) 96 % of control

N#CC1=C(N)OC(/C=C/c2ccccc2)=C(C#N)C1c1ccccc1 (stereo unspecified)
inactive: [8] 97 % of control | [9] 98 % of control | [10] 89 % of control

C/C(=N\N=N\c1ccc(C)s1)c1ccccc1
inactive: dose: 50.0 mg/kg/injection, schedule: Q01DX005 (ip), vehicle: Klucel + Tween-80 105 % of control | dose: 100.0 mg/kg/injection, schedule: Q01DX005 (ip), vehicle: Klucel + Tween-80 105 % of control | dose: 200.0 mg/kg/injection, schedule: Q01DX005 (ip), vehicle: Klucel + Tween-80 97 % of control

COc1cc(NCCCCCNC(C)C)c2ncccc2c1
inactive: [6] 103 % of control | [7] 113 % of control | [8] 100 % of control

COC(=O)C(Cc1ccccc1C(N)=O)(OC)OC
inactive: [11] 98 % of control | [12] 99 % of control | [13] 98 % of control

O=c1[nH]c(=O)c2cccnc2[nH]1
inactive: dose: 6.25 mg/kg/injection, schedule: Q01DX009 (ip), vehicle: Klucel (hydroxypropylcellulose) (HPC) 93 % of control | dose: 12.5 mg/kg/injection, schedule: Q01DX009 (ip), vehicle: Klucel (hydroxypropylcellulose) (HPC) 99 % of control | dose: 25.0 mg/kg/injection, schedule: Q01DX009 (ip), vehicle: Klucel (hydroxypropylcellulose) (HPC) 121 % of control and 93 % of control | dose: 50.0 mg/kg/injection, schedule: Q01DX009 (ip), vehicle: Klucel (hydroxypropylcellulose) (HPC) 118 % of control | dose: 100.0 mg/kg/injection, schedule: Q01DX009 (ip), vehicle: Klucel (hydroxypropylcellulose) (HPC) 99 % of control

CCCCCCCCCCCCC(C(=O)O)C(C)C(=O)O (stereo unspecified)
inactive: dose: 0.25 mg/kg/injection, schedule: Q01DX009 (ip), vehicle: saline with Tween-80 96 % of control | dose: 0.5 mg/kg/injection, schedule: Q01DX009 (ip), vehicle: saline with Tween-80 102 % of control | dose: 1.0 mg/kg/injection, schedule: Q01DX009 (ip), vehicle: saline with Tween-80 104 % of control

CNC(=O)OC(C)C1CCCCC1OC(=O)NC (stereo unspecified)
inactive: [11] 100 % of control | [12] 106 % of control | [13] 100 % of control

Cc1ccc(C[N+](C)(C)CCCCCOc2c(Br)cc(Br)cc2Br)o1
inactive: dose: 3.13 mg/kg/injection, schedule: Q04DX003 (ip), vehicle: Klucel (hydroxypropylcellulose) (HPC) 101 % of control | dose: 6.25 mg/kg/injection, schedule: Q04DX003 (ip), vehicle: Klucel (hydroxypropylcellulose) (HPC) 94 % of control | dose: 12.5 mg/kg/injection, schedule: Q04DX003 (ip), vehicle: Klucel (hydroxypropylcellulose) (HPC) 98 % of control and 106 % of control

CC(=O)N(c1c(N)[nH]c(=O)n(C)c1=O)C1OC(CO)C(O)C(O)C1O (stereo unspecified)
inactive: dose: 60.0 mg/kg/injection, schedule: Q01DX005 (ip), vehicle: saline 99 % of control | dose: 120.0 mg/kg/injection, schedule: Q01DX005 (ip), vehicle: saline 99 % of control | dose: 240.0 mg/kg/injection, schedule: Q01DX005 (ip), vehicle: saline 97 % of control
